#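 Cells were grown in 96-well plates and exposed to each compound for 48 hours at five concentrations; endpoints were interpolated linearly between bracketing concentrations, or set to the highest concentration if not reached. TGI marks complete inhibition of growth.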
# Assays:
# Experiment in all cases: NCI tumour cell line growth inhibition, 48 h
# MALME-3M melanoma = tested on: MALME-3M melanoma
# U251 CNS = tested on: U251 CNS
# XF 498 CNS = tested on: XF 498 CNS
# OVCAR-8 ovarian = tested on: OVCAR-8 ovarian
# HCT-116 colon = tested on: HCT-116 colon
# SK-MEL-28 melanoma = tested on: SK-MEL-28 melanoma
# TK-10 renal = tested on: TK-10 renal
# HT29 colon = tested on: HT29 colon
# DMS 114 small cell lung = tested on: DMS 114 small cell lung
# HOP-62 NSCLC = tested on: HOP-62 NSCLC
# HCC-2998 colon = tested on: HCC-2998 colon
# OVCAR-5 ovarian = tested on: OVCAR-5 ovarian
# CAKI-1 renal = tested on: CAKI-1 renal
# SK-MEL-2 melanoma = tested on: SK-MEL-2 melanoma
# A549 NSCLC = tested on: A549 NSCLC
# KM12 colon = tested on: KM12 colon
# HOP-92 NSCLC = tested on: HOP-92 NSCLC
# K-562 leukemia = tested on: K-562 leukemia
# UACC-62 melanoma = tested on: UACC-62 melanoma
# M19-MEL melanoma = tested on: M19-MEL melanoma
# SF-539 CNS = tested on: SF-539 CNS
# NCI-H460 lung = tested on: NCI-H460 lung
# DMS 273 small cell lung = tested on: DMS 273 small cell lung
# HOP-18 NSCLC = tested on: HOP-18 NSCLC
# A498 renal = tested on: A498 renal
# MOLT-4 leukemia = tested on: MOLT-4 leukemia
# COLO 205 colon = tested on: COLO 205 colon
# UACC-257 melanoma = tested on: UACC-257 melanoma
# RXF 393 renal = tested on: RXF 393 renal
# RXF-631 renal = tested on: RXF-631 renal
# UO-31 renal = tested on: UO-31 renal
# NCI-H226 lung = tested on: NCI-H226 lung
# CCRF-CEM leukemia = tested on: CCRF-CEM leukemia
# SF-295 CNS = tested on: SF-295 CNS
# SNB-19 CNS = tested on: SNB-19 CNS
# HCT-15 colon = tested on: HCT-15 colon
# SF-268 CNS = tested on: SF-268 CNS
# ACHN renal = tested on: ACHN renal
# SW-620 colon = tested on: SW-620 colon
# OVCAR-3 ovarian = tested on: OVCAR-3 ovarian
# OVCAR-4 ovarian = tested on: OVCAR-4 ovarian
# RPMI-8226 leukemia = tested on: RPMI-8226 leukemia
# LOX IMVI melanoma = tested on: LOX IMVI melanoma
# SNB-75 CNS = tested on: SNB-75 CNS
# NCI-H23 lung = tested on: NCI-H23 lung
# LXFL 529 NSCLC = tested on: LXFL 529 NSCLC
# HL-60(TB) leukemia = tested on: HL-60(TB) leukemia
# 786-0 renal = tested on: 786-0 renal
# IGROV1 ovarian = tested on: IGROV1 ovarian
# NCI-H522 lung = tested on: NCI-H522 lung
# SN12C renal = tested on: SN12C renal
# SNB-78 CNS = tested on: SNB-78 CNS
# EKVX NSCLC = tested on: EKVX NSCLC
# SK-MEL-5 melanoma = tested on: SK-MEL-5 melanoma
# M14 melanoma = tested on: M14 melanoma
# KM20L2 colon = tested on: KM20L2 colon
# SK-OV-3 ovarian = tested on: SK-OV-3 ovarian
# DLD-1 colon = tested on: DLD-1 colon
structure (smiles),measurement,setting,value
CC(=O)OCC1OC(n2c(=O)n(-c3ccccc3)c(=O)c3cc(Br)cc(Br)c32)C(OC(C)=O)C(OC(C)=O)C1OC(C)=O (stereo not drawn),TGI,MALME-3M melanoma,> 100 µM
same,TGI,U251 CNS,> 100 µM
same,TGI,XF 498 CNS,> 100 µM
same,TGI,OVCAR-8 ovarian,> 100 µM
same,TGI,HCT-116 colon,> 100 µM
same,TGI,SK-MEL-28 melanoma,> 100 µM
same,TGI,TK-10 renal,> 100 µM
same,TGI,HT29 colon,> 100 µM
same,TGI,DMS 114 small cell lung,> 100 µM
same,TGI,HOP-62 NSCLC,> 100 µM
same,TGI,HCC-2998 colon,> 100 µM
same,TGI,OVCAR-5 ovarian,> 100 µM
same,TGI,CAKI-1 renal,> 100 µM
same,TGI,SK-MEL-2 melanoma,> 100 µM
same,TGI,A549 NSCLC,> 100 µM
same,TGI,KM12 colon,> 100 µM
same,TGI,HOP-92 NSCLC,> 100 µM
same,TGI,K-562 leukemia,> 100 µM
same,TGI,UACC-62 melanoma,> 100 µM
same,TGI,M19-MEL melanoma,> 100 µM
same,TGI,SF-539 CNS,> 100 µM
same,TGI,NCI-H460 lung,> 100 µM
same,TGI,DMS 273 small cell lung,> 100 µM
same,TGI,HOP-18 NSCLC,> 100 µM
same,TGI,A498 renal,> 100 µM
same,TGI,MOLT-4 leukemia,> 100 µM
same,TGI,COLO 205 colon,> 100 µM
same,TGI,UACC-257 melanoma,> 100 µM
same,TGI,RXF 393 renal,> 100 µM
same,TGI,RXF-631 renal,> 100 µM
same,TGI,UO-31 renal,> 100 µM
same,TGI,NCI-H226 lung,> 100 µM
same,TGI,CCRF-CEM leukemia,> 100 µM
same,TGI,SF-295 CNS,> 100 µM
same,TGI,SNB-19 CNS,> 100 µM
same,TGI,HCT-15 colon,> 100 µM
same,TGI,SF-268 CNS,> 100 µM
same,TGI,ACHN renal,> 100 µM
same,TGI,SW-620 colon,> 100 µM
same,TGI,OVCAR-3 ovarian,> 100 µM
same,TGI,OVCAR-4 ovarian,61.5 µM
same,TGI,RPMI-8226 leukemia,> 100 µM
same,TGI,LOX IMVI melanoma,> 100 µM
same,TGI,SNB-75 CNS,> 100 µM
same,TGI,NCI-H23 lung,> 100 µM
same,TGI,LXFL 529 NSCLC,> 100 µM
same,TGI,HL-60(TB) leukemia,> 100 µM
same,TGI,786-0 renal,> 100 µM
same,TGI,IGROV1 ovarian,> 100 µM
same,TGI,NCI-H522 lung,> 100 µM
same,TGI,SN12C renal,> 100 µM
same,TGI,SNB-78 CNS,> 100 µM
same,TGI,EKVX NSCLC,> 100 µM
same,TGI,SK-MEL-5 melanoma,> 100 µM
same,TGI,M14 melanoma,> 100 µM
same,TGI,KM20L2 colon,> 100 µM
same,TGI,SK-OV-3 ovarian,> 100 µM
same,TGI,DLD-1 colon,> 100 µM
CCOC(=O)[C@H]1Nc2ccc(Cl)cc2[C@H]2OCC[C@@H]12,TGI,MALME-3M melanoma,> 100 µM
same,TGI,U251 CNS,> 100 µM
same,TGI,XF 498 CNS,> 100 µM
same,TGI,OVCAR-8 ovarian,> 100 µM
same,TGI,HCT-116 colon,> 100 µM
same,TGI,SK-MEL-28 melanoma,> 100 µM
same,TGI,TK-10 renal,> 100 µM
same,TGI,HT29 colon,> 100 µM
same,TGI,DMS 114 small cell lung,> 100 µM
same,TGI,HOP-62 NSCLC,> 100 µM
same,TGI,HCC-2998 colon,> 100 µM
same,TGI,OVCAR-5 ovarian,> 100 µM
same,TGI,CAKI-1 renal,> 100 µM
same,TGI,SK-MEL-2 melanoma,> 100 µM
same,TGI,A549 NSCLC,> 100 µM
same,TGI,KM12 colon,> 100 µM
same,TGI,K-562 leukemia,> 100 µM
same,TGI,UACC-62 melanoma,> 100 µM
same,TGI,M19-MEL melanoma,> 100 µM
same,TGI,SF-539 CNS,> 100 µM
same,TGI,NCI-H460 lung,> 100 µM
same,TGI,DMS 273 small cell lung,> 100 µM
same,TGI,HOP-18 NSCLC,> 100 µM
same,TGI,A498 renal,> 100 µM
same,TGI,MOLT-4 leukemia,> 100 µM
same,TGI,COLO 205 colon,> 100 µM
same,TGI,UACC-257 melanoma,> 100 µM
same,TGI,RXF 393 renal,> 100 µM
same,TGI,RXF-631 renal,> 100 µM
same,TGI,NCI-H226 lung,> 100 µM
same,TGI,CCRF-CEM leukemia,> 100 µM
same,TGI,SF-295 CNS,> 100 µM
same,TGI,SNB-19 CNS,> 100 µM
same,TGI,HCT-15 colon,> 100 µM
same,TGI,SF-268 CNS,> 100 µM
same,TGI,ACHN renal,> 100 µM
same,TGI,SW-620 colon,> 100 µM
same,TGI,OVCAR-3 ovarian,> 100 µM
same,TGI,OVCAR-4 ovarian,> 100 µM
same,TGI,LOX IMVI melanoma,> 100 µM
same,TGI,SNB-75 CNS,> 100 µM
same,TGI,NCI-H23 lung,> 100 µM
same,TGI,LXFL 529 NSCLC,> 100 µM
same,TGI,HL-60(TB) leukemia,> 100 µM
same,TGI,786-0 renal,> 100 µM
same,TGI,IGROV1 ovarian,> 100 µM
same,TGI,NCI-H522 lung,> 100 µM
same,TGI,SN12C renal,> 100 µM
same,TGI,SNB-78 CNS,> 100 µM
same,TGI,EKVX NSCLC,> 100 µM
same,TGI,SK-MEL-5 melanoma,> 100 µM
same,TGI,M14 melanoma,> 100 µM
same,TGI,KM20L2 colon,> 100 µM
same,TGI,SK-OV-3 ovarian,> 100 µM
same,TGI,DLD-1 colon,> 100 µM
Cc1ccc(NC(=O)CC/C(CC(=O)c2ccc(F)cc2)=N\NC(=O)C(=O)NN)cc1C,TGI,MALME-3M melanoma,> 100 µM
same,TGI,U251 CNS,> 100 µM
same,TGI,OVCAR-8 ovarian,> 100 µM
same,TGI,HCT-116 colon,> 100 µM
same,TGI,SK-MEL-28 melanoma,> 100 µM
same,TGI,TK-10 renal,> 100 µM
same,TGI,HT29 colon,> 100 µM
same,TGI,DMS 114 small cell lung,> 100 µM
same,TGI,HOP-62 NSCLC,> 100 µM
same,TGI,HCC-2998 colon,> 100 µM
same,TGI,OVCAR-5 ovarian,> 100 µM
same,TGI,CAKI-1 renal,> 100 µM
same,TGI,SK-MEL-2 melanoma,> 100 µM
same,TGI,A549 NSCLC,> 100 µM
same,TGI,KM12 colon,> 100 µM
same,TGI,HOP-92 NSCLC,> 100 µM
same,TGI,K-562 leukemia,> 100 µM
same,TGI,UACC-62 melanoma,> 100 µM
same,TGI,M19-MEL melanoma,> 100 µM
same,TGI,SF-539 CNS,> 100 µM
same,TGI,NCI-H460 lung,> 100 µM
same,TGI,DMS 273 small cell lung,> 100 µM
same,TGI,HOP-18 NSCLC,> 100 µM
same,TGI,A498 renal,> 100 µM
same,TGI,COLO 205 colon,> 100 µM
same,TGI,UACC-257 melanoma,> 100 µM
same,TGI,RXF 393 renal,> 100 µM
same,TGI,RXF-631 renal,> 100 µM
same,TGI,UO-31 renal,> 100 µM
same,TGI,NCI-H226 lung,> 100 µM
same,TGI,CCRF-CEM leukemia,> 100 µM
same,TGI,SF-295 CNS,> 100 µM
same,TGI,SNB-19 CNS,> 100 µM
same,TGI,HCT-15 colon,> 100 µM
same,TGI,SF-268 CNS,> 100 µM
same,TGI,ACHN renal,> 100 µM
same,TGI,SW-620 colon,> 100 µM
same,TGI,OVCAR-3 ovarian,> 100 µM
same,TGI,OVCAR-4 ovarian,> 100 µM
same,TGI,LOX IMVI melanoma,> 100 µM
same,TGI,SNB-75 CNS,> 100 µM
same,TGI,NCI-H23 lung,> 100 µM
same,TGI,LXFL 529 NSCLC,> 100 µM
same,TGI,HL-60(TB) leukemia,> 100 µM
same,TGI,786-0 renal,> 100 µM
same,TGI,IGROV1 ovarian,> 100 µM
same,TGI,NCI-H522 lung,> 100 µM
same,TGI,SN12C renal,> 100 µM
same,TGI,SNB-78 CNS,> 100 µM
same,TGI,EKVX NSCLC,> 100 µM
same,TGI,SK-MEL-5 melanoma,> 100 µM
same,TGI,M14 melanoma,> 100 µM
same,TGI,KM20L2 colon,> 100 µM
same,TGI,SK-OV-3 ovarian,> 100 µM
same,TGI,DLD-1 colon,> 100 µM
